# Values quoted from earlier work in PubChem BioAssay AID1259410 (Chemical Carcinogenesis Research Information System (CCRIS), 2018).
# System: rodent tumor promotion studies, tumor incidence
# Assay: CCRIS tumor promotion studies
# Details: Route [Promoter]: DERMAL, Species: MOUSE
smiles,measurement,setting,value
CCCCCCCCCCCCCC(=O)O[C@@H]1[C@@H](C)[C@@]2(O)[C@@H](C=C(CO)C[C@]3(O)C(=O)C(C)=C[C@@H]23)[C@@H]2C(C)(C)[C@]12OC(C)=O,outcome,"Carcinogen: 1,2-DIHYDRO-1,2-DIHYDROXY-5,6-DIMETHYLCHRYSENE, 139562-14-4, Doses [Carcinogen]: 33, 100 NMOL IN 0.1 ML ACETONE ONCE, Doses [Promoter]: 0, 2.5 UG IN 0.1 ML ACETONE 3/WK FOR 20 WK BEGINNING 10 D POST CARCINOGEN DOSE (STUDY DURATION: 20 WK), Route [Carcinogen]: DERMAL, Strain/Sex: CD-1/FEMALE",skin: tumor
same,outcome,"Carcinogen: 1,3-DIMETHYLBENZO[B]FLUORANTHRENE, 95741-51-8, Doses [Carcinogen]: 40, 100 NMOL TOTAL DOSES GIVEN IN 10 SUBDOSES 1/2 D IN 0.1 ML ACETONE, Doses [Promoter]: 2.5 UG IN 0.1 ML ACETONE 3/WK FOR 30 WK BEGINNING 10 D POST CARCINOGEN TREATMENT (STUDY DURATION: 34 WK), Route [Carcinogen]: DERMAL, Strain/Sex: CD-1/FEMALE",skin: tumors
same,outcome,"Carcinogen: 1-METHYL-4H-CYCLOPENTA[DEF]PHENANTHRENE, 98090-89-2, Doses [Carcinogen]: 100 UG IN ACETONE (100 µL) 1/2 D FOR A TOTAL OF 10 SUBDOSES (TOTAL DOSE 1 MG), Doses [Promoter]: 0.0025% IN 100 µL ACETONE 3/WK FOR 20 WK BEGINNING POST CARCINOGEN TREATMENT (STUDY DURATION: 23 WK), Route [Carcinogen]: DERMAL, Strain/Sex: CD-1/FEMALE",skin: tumors
same,outcome,"Carcinogen: 1-METHYLBENZO[B]FLUORANTHRENE, 95741-48-3, Doses [Carcinogen]: 100 NMOL TOTAL DOSE GIVEN IN 10 SUBDOSES 1/2 D IN 0.1 ML ACETONE, Doses [Promoter]: 2.5 UG IN 0.1 ML ACETONE 3/WK FOR 30 WK BEGINNING 10 D POST CARCINOGEN TREATMENT (STUDY DURATION: 34 WK), Route [Carcinogen]: DERMAL, Strain/Sex: CD-1/FEMALE",skin: tumors
same,outcome,"Carcinogen: 2'-(4-NITROPHENOXY)OXIRANE, 59485-08-4, Doses [Carcinogen]: 5 UMOL IN 0.2 ML 15% DMSO IN ACETONE ONCE, Doses [Promoter]: 0, 15 NMOL IN 0.1 ML ACETONE ONCE 18-24 HR PRIOR TO CARCINOGEN DOSE THEN BEGINNING 1 WK LATER 2/WK FOR DURATION OF STUDY, Route [Carcinogen]: DERMAL, Strain/Sex: ICR/FEMALE",skin: papilloma
same,outcome,"Carcinogen: 2-AMINO-3-METHYL-9H-PYRIDO[2,3-B]INDOLE, 68006-83-7, Doses [Carcinogen]: 0, 4 MG/0.1 ML DMSO 2/WK FOR 5 WK, Doses [Promoter]: 2.5 UG IN 0.1 ML ACETONE 2/WK FOR 47 WK BEGINNING 1 WK POST CARCINOGEN TREATMENT (STUDY DURATION: 48 WK), Route [Carcinogen]: DERMAL, Strain/Sex: CD-1/FEMALE",skin: tumor
same,outcome,"Carcinogen: 2-AMINO-5-PHENYLPYRIDINE, 33421-40-8, Doses [Carcinogen]: 0, 10 MG/0.1 ML DMSO 2/WK FOR 5 WK, Doses [Promoter]: 2.5 UG IN 0.1 ML ACETONE 2/WK FOR 47 WK BEGINNING 1 WK POST CARCINOGEN TREATMENT (STUDY DURATION: 48 WK), Route [Carcinogen]: DERMAL, Strain/Sex: CD-1/FEMALE",skin: tumor
same,outcome,"Carcinogen: 2-METHYLBENZO[K]FLUORANTHENE, 95741-57-4, Doses [Carcinogen]: 4 UMOL (TOTAL DOSE) ADMINISTERED IN 10 SUBDOSES 1/2 D, Doses [Promoter]: 2.5 UG IN 0.1 ML ACETONE 3/WK FOR 30 WK BEGINNING 10 D POST CARCINOGEN TREATMENT (STUDY DURATION: 33 WK), Route [Carcinogen]: DERMAL, Strain/Sex: CRL:CD-1/FEMALE",skin: tumor
same,outcome,"Carcinogen: 3'-AZIDO-2',3'-DIDEOXYTHYMIDINE, 30516-87-1, Doses [Carcinogen]: 0, 25 MG IN 0.5 ML DISTILLED WATER ADMINISTERED TO PREGNANT RATS ON DAYS 12-18 OF GESTATION, Doses [Promoter]: 2 UG IN 0.1 ML DISTILLED WATER 2/WK FOR 17 WK THEN 5 UG IN 0.1 ML DISTILLED WATER 2/WK FROM WK 18 TO 35 ADMINISTERED TO, Route [Carcinogen]: GAVAGE, Strain/Sex: CD-1/MALE,FEMALE",skin:tumor
same,outcome,"Carcinogen: 3-AMINO-1,4-DIMETHYL-5H-PYRIDO[4,3-B]INDOLE, 62450-06-0, Doses [Carcinogen]: 0, 2 MG/0.1 ML DMSO 2/WK FOR 5 WK, Doses [Promoter]: 2.5 UG IN 0.1 ML ACETONE 2/WK FOR 47 WK BEGINNING 1 WK POST CARCINOGEN TREATMENT (STUDY DURATION: 48 WK), Route [Carcinogen]: DERMAL, Strain/Sex: CD-1/FEMALE",skin: tumor
same,outcome,"Carcinogen: 3-AMINO-1-METHYL-5H-PYRIDO[4,3-B]INDOLE, 62450-07-1, Doses [Carcinogen]: 0, 2 MG/0.1 ML DMSO 2/WK FOR 5 WK, Doses [Promoter]: 2.5 UG IN 0.1 ML ACETONE 2/WK FOR 47 WK BEGINNING 1 WK POST CARCINOGEN TREATMENT (STUDY DURATION: 48 WK), Route [Carcinogen]: DERMAL, Strain/Sex: CD-1/FEMALE",skin: tumor
same,outcome,"Carcinogen: 3-METHYLBENZO[B]FLUORANTHRENE, 95741-50-7, Doses [Carcinogen]: 40, 100 NMOL TOTAL DOSE GIVEN IN 10 SUBDOSES 1/2 D IN 0.1 ML ACETONE, Doses [Promoter]: 2.5 UG IN 0.1 ML ACETONE 3/WK FOR 30 WK BEGINNING 10 D POST CARCINOGEN TREATMENT (STUDY DURATION: 34 WK), Route [Carcinogen]: DERMAL, Strain/Sex: CD-1/FEMALE",skin: tumors
same,outcome,"Carcinogen: 3-METHYLCHOLANTHRENE, 56-49-5, Doses [Promoter]: 0, 1.8 NMOL IN 0.1 ML ACETONE 2/WK FOR 4 WK BEGINNING 6 WK POST CARCINOGEN DOSE (STUDY DURATION: 2 YR), Route [Carcinogen]: SUBCUTANEOUS, Strain/Sex: S/RVCRI/FEMALE",skin: tumor
same,outcome,"Carcinogen: 4-CYCLOPENTA[DEF]CHRYSEN-4-ONE, 86853-91-0, Doses [Carcinogen]: 100 UG IN ACETONE (100 µL) 1/2 D FOR A TOTAL OF 10 SUBDOSES (TOTAL DOSE 1 MG), Doses [Promoter]: 0.0025% IN 100 µL ACETONE 3/WK FOR 20 WK BEGINNING POST CARCINOGEN TREATMENT (STUDY DURATION: 23 WK), Route [Carcinogen]: DERMAL, Strain/Sex: CD-1/FEMALE",skin: tumors
same,outcome,"Carcinogen: 4-FLUOROBENZO[B]FLUORANTHENE, 146746-67-0, Doses [Carcinogen]: 10, 40, 120, 400 NMOL (TOTAL DOSE) APPLIED 1/2 D FOR 10 SUBDOSES, Doses [Carcinogen]: 10, 40, 120, 400 NMOL (TOTAL DOSE) APPLIED 1/2 D FOR 10 SUBDOSES, Doses [Promoter]: 0, 2.5 UG IN 100 µL ACETONE 3/WK FOR 20 WK BEGINNING 10 D POST CARCINOGEN TREATMENT (STUDY DURATION: 22 WK), Route [Carcinogen]: DERMAL, Strain/Sex: CRL:CD-1/FEMALE",skin: tumor
same,outcome,"Carcinogen: 4-FLUOROBENZO[J]FLUORANTHENE, 129286-36-8, Doses [Carcinogen]: 0.3, 1, 2 UMOL (TOTAL DOSE) ADMINISTERED IN SUBDOSES 1/2 D, Doses [Carcinogen]: 0.3, 1, 2 UMOL (TOTAL DOSE) ADMINISTERED IN SUBDOSES 1/2 D, Doses [Promoter]: 2.5 UG IN 100 µL ACETONE 3/WK FOR 20 WK BEGINNING 10 D POST LAST CARCINOGEN DOSE (STUDY DURATION: 27 WK), Route [Carcinogen]: DERMAL, Strain/Sex: CD-1/FEMALE",skin: tumor
same,outcome,"Carcinogen: 4-NITROPHENYL VINYL ETHER, 940-14-7, Doses [Carcinogen]: 5 UMOL IN 0.2 ML 15% DMSO IN ACETONE ONCE, Doses [Promoter]: 0, 15 NMOL IN 0.1 ML ACETONE ONCE 18-24 HR PRIOR TO CARCINOGEN DOSE THEN BEGINNING 1 WK LATER 2/WK FOR DURATION OF STUDY, Route [Carcinogen]: DERMAL, Strain/Sex: ICR/FEMALE",skin: papilloma
same,outcome,"Carcinogen: 4H-CYCLOPENTA[DEF]CHRYSENE, 202-98-2, Doses [Carcinogen]: 100 UG IN ACETONE (100 µL) 1/2 D FOR A TOTAL OF 10 SUBDOSES (TOTAL DOSE 1 MG), Doses [Promoter]: 0.0025% IN 100 µL ACETONE 3/WK FOR 20 WK BEGINNING POST CARCINOGEN TREATMENT (STUDY DURATION: 23 WK), Route [Carcinogen]: DERMAL, Strain/Sex: CD-1/FEMALE",skin: tumors
same,outcome,"Carcinogen: 5,6-DIMETHYLCHRYSENE, 3697-27-6, Doses [Carcinogen]: 100 NMOL IN 0.1 ML ACETONE ONCE, Doses [Promoter]: 0, 2.5 UG IN 0.1 ML ACETONE 3/WK FOR 20 WK BEGINNING 10 D POST CARCINOGEN DOSE (STUDY DURATION: 20 WK), Route [Carcinogen]: DERMAL, Strain/Sex: CD-1/FEMALE",skin: tumor
same,outcome,"Carcinogen: 5-CHLOROMETHYLFURFURAL, 1623-88-7, Doses [Carcinogen]: 0, 10, 25 UMOL IN O.2 ML ACETONE:DMSO ONCE, Doses [Carcinogen]: 0, 10, 25 UMOL IN O.2 ML ACETONE:DMSO ONCE, Doses [Promoter]: 0, 2.5 UG 2/WK FOR 24 WK BEGINNING 1 WK POST CARCINOGEN DOSE (STUDY DURATION: 24 WK), Route [Carcinogen]: DERMAL, Strain/Sex: CD-1/FEMALE",skin: papilloma
same,outcome,"Carcinogen: 5-FLUOROBENZO[B]FLUORANTHENE, 146746-68-1, Doses [Carcinogen]: 10, 40, 120, 400 NMOL (TOTAL DOSE) APPLIED 1/2 D FOR 10 SUBDOSES, Doses [Carcinogen]: 10, 40, 120, 400 NMOL (TOTAL DOSE) APPLIED 1/2 D FOR 10 SUBDOSES, Doses [Promoter]: 0, 2.5 UG IN 100 µL ACETONE 3/WK FOR 20 WK BEGINNING 10 D POST CARCINOGEN TREATMENT (STUDY DURATION: 22 WK), Route [Carcinogen]: DERMAL, Strain/Sex: CRL:CD-1/FEMALE",skin: tumor
same,outcome,"Carcinogen: 5-HYDROXYMETHYLFURFURAL, 67-47-0, Doses [Carcinogen]: 0, 10, 25 UMOL IN 0.2 ML ACETONE:DMSO ONCE, Doses [Carcinogen]: 0, 10, 25 UMOL IN 0.2 ML ACETONE:DMSO ONCE, Doses [Promoter]: 0, 2.5 UG 2/WK FOR 24 WK BEGINNING 1 WK POST CARCINOGEN DOSE (STUDY DURATION: 24 WK), Route [Carcinogen]: DERMAL, Strain/Sex: CD-1/FEMALE",skin: papilloma
same,outcome,"Carcinogen: 5-METHYLCHRYSENE, 3697-24-3, Doses [Carcinogen]: 33, 100 NMOL IN 0.1 ML ACETONE ONCE, Doses [Promoter]: 2.5 UG IN 0.1 ML ACETONE 3/WK FOR 25 WK BEGINNING 10 D POST INITIATION (STUDY DURATION: 27 WK), Route [Carcinogen]: DERMAL, Strain/Sex: CD-1/FEMALE",skin: tumors
same,outcome,"Carcinogen: 5-SULFOOXYMETHYLFURFURAL, 159091-35-7, Doses [Carcinogen]: 0, 25 UMOL IN 0.2 ML ACETONE:DMSO ONCE, Doses [Promoter]: 0, 2.5 UG 2/WK FOR 24 WK BEGINNING 1 WK POST CARCINOGEN DOSE (STUDY DURATION: 24 WK), Route [Carcinogen]: DERMAL, Strain/Sex: CD-1/FEMALE",skin: papilloma
same,outcome,"Carcinogen: 6-FLUOROBENZO[B]FLUORANTHENE, 125811-13-4, Doses [Carcinogen]: 10, 40, 120, 400 NMOL (TOTAL DOSE) APPLIED 1/2 D FOR 10 SUBDOSES, Doses [Carcinogen]: 10, 40, 120, 400 NMOL (TOTAL DOSE) APPLIED 1/2 D FOR 10 SUBDOSES, Doses [Promoter]: 0, 2.5 UG IN 100 µL ACETONE 3/WK FOR 20 WK BEGINNING 10 D POST CARCINOGEN TREATMENT (STUDY DURATION: 22 WK), Route [Carcinogen]: DERMAL, Strain/Sex: CRL:CD-1/FEMALE",skin: tumor
